ChEMBL document CHEMBL6083273, “Targeting Periplakin of Novel Benzenesulfonamides as Highly Selective Agonists for the Treatment of Vitiligo” (2024)
Activity calls are given as the source filed them. The calls are words filed in the database; no cut-off is given here.

Assays:
Danio rerio [1] = organism: Danio rerio; test: Induction of melanogenesis in zebrafish treated for 24 hrs by absorbance based assay (reference value: 98.2 to 100.3 %); assay type: functional
Danio rerio [2] = organism: Danio rerio; test: Effect on tryptophan metabolism in zebrafish embryo assessed as ICA metabolite level at 10 uM by LC/MS analysis; assay type: functional
Danio rerio [3] = organism: Danio rerio; test: Effect on tryptophan metabolism in zebrafish embryo assessed as LE metabolite level at 10 uM by LC/MS analysis; assay type: functional
Danio rerio [4] = organism: Danio rerio; test: Effect on tryptophan metabolism in zebrafish embryo assessed as KYNA metabolite level at 10 uM by LC/MS analysis; assay type: functional
Danio rerio [5] = organism: Danio rerio; test: Effect on tryptophan metabolism in zebrafish embryo assessed as skatole metabolite level at 10 uM by LC/MS analysis; assay type: functional
Danio rerio [6] = organism: Danio rerio; test: Effect on tryptophan metabolism in zebrafish embryo assessed as IPA metabolite level at 10 uM by LC/MS analysis; assay type: functional
Danio rerio [7] = organism: Danio rerio; test: Effect on tryptophan metabolism in zebrafish embryo assessed as NAS metabolite level at 10 uM by LC/MS analysis; assay type: functional
Danio rerio [8] = organism: Danio rerio; test: Effect on tryptophan metabolism in zebrafish embryo assessed as Xa metabolite level at 10 uM by LC/MS analysis; assay type: functional
Danio rerio [9] = organism: Danio rerio; test: Effect on tryptophan metabolism in zebrafish embryo assessed as IA metabolite level at 10 uM by LC/MS analysis; assay type: functional
Danio rerio [10] = organism: Danio rerio; test: Effect on tryptophan metabolism in zebrafish embryo assessed as Trp metabolite level at 10 uM by LC/MS analysis; assay type: functional
Danio rerio [11] = organism: Danio rerio; test: Effect on tryptophan metabolism in zebrafish embryo assessed as IAN metabolite level at 10 uM by LC/MS analysis; assay type: functional
Danio rerio [12] = organism: Danio rerio; test: Effect on tryptophan metabolism in zebrafish embryo assessed as ILA metabolite level at 10 uM by LC/MS analysis; assay type: functional
Danio rerio [13] = organism: Danio rerio; test: Effect on tryptophan metabolism in zebrafish embryo assessed as indole metabolite level at 10 uM by LC/MS analysis; assay type: functional
Danio rerio [14] = organism: Danio rerio; test: Effect on tryptophan metabolism in zebrafish embryo assessed as 5-HTP metabolite level at 10 uM by LC/MS analysis; assay type: functional
Danio rerio [15] = organism: Danio rerio; test: Effect on tryptophan metabolism in zebrafish embryo assessed as 3-HK metabolite level at 10 uM by LC/MS analysis; assay type: functional
Danio rerio [16] = organism: Danio rerio; test: Effect on tryptophan metabolism in zebrafish embryo assessed as 3-HAA metabolite level at 10 uM by LC/MS analysis; assay type: functional
Danio rerio [17] = organism: Danio rerio; test: Effect on tryptophan metabolism in zebrafish embryo assessed as AA metabolite level at 10 uM by LC/MS analysis; assay type: functional
Danio rerio [18] = organism: Danio rerio; test: Effect on tryptophan metabolism in zebrafish embryo assessed as NA metabolite level at 10 uM by LC/MS analysis; assay type: functional
Danio rerio [19] = organism: Danio rerio; test: Effect on tryptophan metabolism in zebrafish embryo assessed as IAA metabolite level at 10 uM by LC/MS analysis; assay type: functional
Danio rerio [20] = organism: Danio rerio; test: Effect on tryptophan metabolism in zebrafish embryo assessed as 5-HIAA metabolite level at 10 uM by LC/MS analysis; assay type: functional
Danio rerio [21] = organism: Danio rerio; test: Induction of melanogenesis in zebrafish treated for 24 hrs by absorbance based assay; assay type: functional, organism-based
Danio rerio [22] = organism: Danio rerio; test: Induction of melanogenesis in zebrafish at 40 uM treated for 24 hrs by absorbance based assay relative to control; assay type: functional
Danio rerio [23] = organism: Danio rerio; test: Induction of melanogenesis in zebrafish at 0.1 nM treated for 24 hrs by absorbance based assay; assay type: functional, organism-based
Danio rerio [24] = organism: Danio rerio; test: Induction of melanogenesis in zebrafish at 40 uM treated for 24 hrs by absorbance based assay; assay type: functional, organism-based

Structure (SMILES): C[C@H](Nc1nccc(NS(=O)(=O)c2cccc([N+](=O)[O-])c2)n1)c1ccc(C2CC2)cc1
- Activity (Danio rerio [1]): 149.56%

Structure (SMILES): Cc1cccc(S(=O)(=O)Nc2ccnc(N[C@@H](C)c3ccc(-c4ccc(F)c(C)c4)cc3)n2)c1
- Activity (Danio rerio [1]): 46.585%

Structure (SMILES): Cc1cc(-c2ccc([C@H](C)Nc3nccc(NS(=O)(=O)c4ccc5ccccc5c4)n3)cc2)ccc1F
- Activity (Danio rerio [1]): 89.349%

Structure (SMILES): C[C@H](Nc1nccc(NS(=O)(=O)c2cccc([N+](=O)[O-])c2)n1)c1ccc(-c2ccc(F)cc2)cc1
- Activity (Danio rerio [1]): 146.53%

Structure (SMILES): COc1ccc(CNc2nccc(NS(=O)(=O)c3cccc([N+](=O)[O-])c3)n2)cc1
- Activity (Danio rerio [1]): 132.54%

Structure (SMILES): C[C@H](Nc1nccc(NS(=O)(=O)c2cccc([N+](=O)[O-])c2)n1)c1ccc([N+](=O)[O-])cc1
- Activity (Danio rerio [1]): 129.75%

Structure (SMILES): Cc1cc(-c2ccc([C@H](C)Nc3nccc(NS(=O)(=O)c4ccc(F)cc4)n3)cc2)ccc1F
- Activity (Danio rerio [2]): 25.11 nmol/kg
- Activity (Danio rerio [3]): 53.82 nmol/kg
- Activity (Danio rerio [4]): 1.12 nmol/kg
- Activity (Danio rerio [5]): 506.87 nmol/kg
- Activity (Danio rerio [6]): 22.24 nmol/kg
- Activity (Danio rerio [7]): 0.09 nmol/kg
- Activity (Danio rerio [8]): 468.35 nmol/kg
- Activity (Danio rerio [9]): 21.42 nmol/kg
- Activity (Danio rerio [10]): 234150.9 nmol/kg
- Activity (Danio rerio [11]): 16.03 nmol/kg
- Activity (Danio rerio [12]): 108.22 nmol/kg
- Activity (Danio rerio [1]): 135.12%
- Activity (Danio rerio [13]): 754.01 nmol/kg
- Activity (Danio rerio [14]): 42.55 nmol/kg
- Activity (Danio rerio [15]): 109.36 nmol/kg
- Activity (Danio rerio [16]): 1.15 nmol/kg
- Activity (Danio rerio [17]): 13.62 nmol/kg
- Activity (Danio rerio [18]): 2175.78 nmol/kg
- Activity (Danio rerio [19]): 0.85 nmol/kg
- Activity (Danio rerio [20]): 105.04 nmol/kg

Structure (SMILES): Cc1cc(-c2ccc([C@H](C)Nc3nccc(NS(=O)(=O)Cc4ccccc4)n3)cc2)ccc1F
- Activity (Danio rerio [1]): 132.22%

Structure (SMILES): Cc1cc(-c2ccc([C@H](C)Nc3nccc(NS(=O)(=O)c4cc(F)cc(F)c4)n3)cc2)ccc1F
- Activity (Danio rerio [1]): 81.815%

Structure (SMILES): Cc1cc(-c2ccc([C@H](C)Nc3nccc(NS(=O)(=O)c4ccccc4C)n3)cc2)ccc1F
- Activity (Danio rerio [1]): 63.17%

Structure (SMILES): Cc1cc(-c2ccc([C@H](C)Nc3nccc(NS(=O)(=O)c4cc(C(F)(F)F)cc(C(F)(F)F)c4)n3)cc2)ccc1F
- Activity (Danio rerio [1]): 114.22%

Structure (SMILES): C[C@H](Nc1nccc(NS(=O)(=O)c2cccc([N+](=O)[O-])c2)n1)c1ccc(-c2cccs2)cc1
- Activity (Danio rerio [1]): 94.688%

Structure (SMILES): O=[N+]([O-])c1cccc(S(=O)(=O)Nc2ccnc(NCc3ccccc3)n2)c1
- Activity (Danio rerio [1]): 107.18%

Structure (SMILES): Cc1cc(-c2ccc([C@H](C)Nc3nccc(NS(=O)(=O)c4ccccc4)n3)cc2)ccc1F
- Activity (Danio rerio [21]): Dose-dependent-effect
- Emax at 40 µM (Danio rerio [22]): 139%

Structure (SMILES): C[C@H](Nc1nccc(NS(=O)(=O)c2cccc([N+](=O)[O-])c2)n1)c1ccc(-c2ccccc2)cc1
- Activity (Danio rerio [1]): 106.72%

Structure (SMILES): C=C1/C(=C\C=C2/CCC[C@]3(C)[C@@H]([C@H](C)/C=C/[C@@H](O)C4CC4)CC[C@@H]23)C[C@@H](O)C[C@@H]1O
- Activity (Danio rerio [23]): Active

Structure (SMILES): O=[N+]([O-])c1cccc(S(=O)(=O)Nc2ccnc(NCc3ccc(F)cc3)n2)c1
- Activity (Danio rerio [1]): 115.42%

Structure (SMILES): C[C@H](Nc1nccc(NS(=O)(=O)c2cccc([N+](=O)[O-])c2)n1)c1ccc(-c2ccc(F)c(COCCCNC(=O)CCCC[C@@H]3SC[C@@H]4NC(=O)N[C@@H]43)c2)cc1
- Activity (Danio rerio [24]): Active

Structure (SMILES): O=[N+]([O-])c1cccc(S(=O)(=O)Nc2ccnc(NCc3ccc(C(F)(F)F)cc3)n2)c1
- Activity (Danio rerio [1]): 93.387%

Structure (SMILES): Cc1ccc(CNc2nccc(NS(=O)(=O)c3cccc([N+](=O)[O-])c3)n2)cc1
- Activity (Danio rerio [1]): 148.37%

Structure (SMILES): C[C@H](Nc1nccc(NS(=O)(=O)c2cccc([N+](=O)[O-])c2)n1)c1ccc(-c2ccc3ccccc3c2)cc1
- Activity (Danio rerio [1]): 77.723%

Structure (SMILES): COc1ccc(S(=O)(=O)Nc2ccnc(N[C@@H](C)c3ccc(-c4ccc(F)c(C)c4)cc3)n2)cc1
- Activity (Danio rerio [1]): 67.56%

Structure (SMILES): O=[N+]([O-])c1cccc(S(=O)(=O)Nc2ccnc(Nc3ccccc3)n2)c1
- Activity (Danio rerio [1]): 155.77%

Structure (SMILES): Cc1ccc(S(=O)(=O)Nc2ccnc(N[C@@H](C)c3ccc(-c4ccc(F)c(C)c4)cc3)n2)cc1
- Activity (Danio rerio [1]): 135.69%

Structure (SMILES): Cc1cc(-c2ccc([C@H](C)Nc3nccc(NS(=O)(=O)c4cccc(C(F)(F)F)c4)n3)cc2)ccc1F
- Activity (Danio rerio [1]): 58.78%

Structure (SMILES): C[C@H](Nc1nccc(NS(=O)(=O)c2cccc([N+](=O)[O-])c2)n1)c1ccccc1
- Activity (Danio rerio [1]): 99.105%
